Consider five sequences from PMC5904360, “Soluble N-Ethylmaleimide-Sensitive Factor Attachment Protein Receptor-Derived Peptides for Regulation of Mast Cell Degranulation” (Frontiers in Immunology, 2018).

Assay [1] concerns the target T1, SN23-Syn4-Vp8 SNARE complex (Rattus norvegicus, UniProt O70377+Q08850+Q9WUF4).
T1 construct: Syn4 (amino acids 1–298); SNAP-23 (amino acids 1–210); VAMP8 (amino acids 1–100); GST (N, cleaved yes); made in house; host or cells: Escherichia coli Rosetta(DE3)pLysS
T1 sequence (Q08850 1-298): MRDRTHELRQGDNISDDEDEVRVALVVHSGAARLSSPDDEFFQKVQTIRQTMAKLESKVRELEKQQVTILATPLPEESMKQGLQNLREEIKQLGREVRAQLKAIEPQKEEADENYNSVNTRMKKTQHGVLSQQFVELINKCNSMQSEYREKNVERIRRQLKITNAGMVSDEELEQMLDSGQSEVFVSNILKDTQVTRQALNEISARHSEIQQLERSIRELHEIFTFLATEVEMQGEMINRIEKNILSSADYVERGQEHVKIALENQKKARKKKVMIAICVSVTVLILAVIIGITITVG
T1 sequence (O70377 1-210): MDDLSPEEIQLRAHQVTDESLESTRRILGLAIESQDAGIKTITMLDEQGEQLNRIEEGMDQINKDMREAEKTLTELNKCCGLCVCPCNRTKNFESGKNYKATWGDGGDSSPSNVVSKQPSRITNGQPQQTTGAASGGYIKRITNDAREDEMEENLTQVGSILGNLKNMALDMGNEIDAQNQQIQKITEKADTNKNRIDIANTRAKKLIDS
T1 sequence (Q9WUF4 1-100): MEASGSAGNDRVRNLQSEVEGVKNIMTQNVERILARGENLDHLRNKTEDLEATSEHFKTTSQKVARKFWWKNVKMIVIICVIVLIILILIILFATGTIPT
Nature of the assay: SNARE-driven membrane fusion (total lipid mixing) assay with proteoliposomes. Conditions: for inhibition of membrane fusion, peptide added before preincubation: peptide added before preincubation of T- and V-liposomes at 4°C overnight (Figure 4A). The class given is biochemical. The source says:
(§1) Total RNA was obtained from RBL-2H3 cells using TRIzol® Reagent (#15596026, Invitrogen, Carlsbad, CA, USA) and served as a template for cDNA synthesis with M-MLV reverse transcriptase (M1705, Promega, Madison, WI, USA) according to the manufacturer’s protocol. The cDNAs amplified for rat Syn4, SNAP-23, VAMP2, VAMP4, VAMP7, and VAMP8 using each primer pair ([4]), were cloned into the pGEX-4T 1 vector. The mast cell SNARE proteins [Syn4 (amino acids 1–298), SNAP-23 (amino acids 1–210), full-length VAMP2 (VpF, amino acids 1–116), VAMP4 (amino acids 1–141), and VAMP8 (amino acids 1–100)] were expressed in Escherichia coli Rosetta(DE3)pLysS (#70956, Novagen, Darmstadt, Germany) and purified as glutathione-S-transferase-tagged fusion proteins as reported previously ([8]).
(§2) To prepare the unilamellar liposomes, a 50-mM lipid mixture of palmitoyl-2-oleoylphosphatidylcholine (POPC) (#850457, Avanti Polar Lipids, Alabaster, AL, USA):1,2-dioleoyl-phosphatidylserine (DOPS) (#840035, Avanti Polar Lipids) at 65:35 mol% was dried in a glass tube under a gentle stream of nitrogen gas and then exposed to a vacuum overnight. The resultant lipid film was resuspended in dialysis buffer (25 mM HEPES and 100 mM KCl, pH 7.4) by vortexing, followed by an extrusion step with polycarbonate membrane filters having a pore size of 100 nm (#610005, Avanti Polar Lipids). To prepare proteoliposomes, binary T-SNAREs, which were pre-formed by mixing Syn4 and SNAP-23 at room temperature for 60 min, were incubated with 50 mM unilamellar liposomes for 15 min at the same temperature, resulting in a 50:1 lipid/protein molar ratio ([9]).
(§3) For the preparation of V-SNARE proteoliposomes, a 10-mM premixed lipid solution [POPC:DOPS:N-(7-nitro-2-1,3-benzoxadiazol-4-yl (NBD))-phosphatidylserine (#810198, Avanti Polar Lipids):[…] (#810150, Avanti Polar Lipids) = 62:35:1.5:1.5 (molar ratio)] was used for the preparation of fluorescent liposomes in the same manner as above. The prepared liposomes were then mixed with VAMP2 for 15 min at room temperature. The liposome/protein mixture was diluted twice to bring the concentration of n-octyl glucoside (O8001, Sigma-Aldrich) below the critical micelle concentration. After overnight dialysis against 1L dialysis buffer at 4°C to remove the detergent, SM-2 bio-beads (#1523920, Bio-Rad Laboratories, Hercules, CA, USA) were added to the sample to remove any remaining n-octyl glucoside. The solution was then centrifuged at 10,000 × g to remove the protein/lipid aggregates, and the final lipid concentrations of both the T- and V-liposomes were adjusted to 1 mM with a lipid-to-protein ratio of 50:1.
A total lipid mixing assay using the T- and V-liposomes was performed as described previously with minor modifications ([8]). Briefly, peptide inhibitors were applied to the T-vesicles at the indicated concentrations and then the T-vesicles were mixed with the V-vesicles in a 384-well plate for the initiation of fusion, with a T- to V-vesicle volume ratio of 9:1. The fusion was monitored using the dequenching of NBD fluorescence signal (excitation 465 nm/emission 530 nm). After at least 80 min of fusion, the maximum NBD signal was obtained by adding 0.1% Triton X-100™. All the lipid-mixing experiments were performed at 37°C.

For assay [2], the system named is RBL-2H3 mast cells. Nature of the assay: Degranulation assay, histamine release (enzyme immunoassay). The class given is cell-based, rat. The conditions noted are these: PTD-conjugated peptide without SLO (LY294002 as positive control), DNP-IgE sensitized, DNP-BSA stimulation, no A23187 pretreatment; three independent experiments (Figure 2C).
Assay [3] deals with RBL-2H3 mast cells. Nature of the assay: Degranulation assay, β-hexosaminidase release. The class given is cell-based, rat. Conditions: for reduction of β-hexosaminidase release: 10 µM PTD-fused peptide without SLO (LY294002 as positive control), DNP-BSA stimulation, no A23187 pretreatment, three independent experiments (Figure 2A gray bars, 2C); for inhibition of mast cell degranulation with versus without A23187 pretreatment: PTD-conjugated peptides, read-outs β-hexosaminidase and histamine (Figure 4B).

Assay [4] deals with T1, SN23-Syn4-Vp8 SNARE complex. Nature of the assay: SNARE-driven membrane fusion (total lipid mixing) assay with proteoliposomes. The class given is biochemical. The conditions noted are these: peptide added after preincubation of T- and V-liposomes at 4°C overnight (partially zippered SNAREs) (Figure 4A).
Assay [5] has as its target T2, SN23-Syn4-Vp2 SNARE complex (Rattus norvegicus, UniProt O70377+P63045+Q08850).
T2 construct: Syn4 (amino acids 1–298); SNAP-23 (amino acids 1–210); full-length VAMP2 (VpF, amino acids 1–116); GST (N, cleaved yes); made in house; host or cells: Escherichia coli Rosetta(DE3)pLysS
The assay is described as above. The class given is biochemical. The conditions noted are these: for inhibition of membrane fusion, peptide added after preincubation: peptide added after preincubation of T- and V-liposomes at 4°C overnight (partially zippered SNAREs) (Figure 4A); for inhibition of membrane fusion, peptide added before preincubation: peptide added before preincubation of T- and V-liposomes at 4°C overnight (Figure 4A).
Description: as §1, §2, §3
A total lipid mixing assay using the T- and V-liposomes was performed as described previously with minor modifications ([8]). […] The fusion was monitored using the dequenching of NBD fluorescence signal (excitation 465 nm/emission 530 nm). After at least 80 min of fusion, the maximum NBD signal was obtained by adding 0.1% Triton X-100™. All the lipid-mixing experiments were performed at 37°C.

T2 sequence (P63045 whole entry, one chain of several, the tested form may be a part): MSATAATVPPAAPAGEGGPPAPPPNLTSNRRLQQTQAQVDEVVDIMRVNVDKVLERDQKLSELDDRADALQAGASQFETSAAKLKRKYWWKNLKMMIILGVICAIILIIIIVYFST

For the sequence “RGENLDHLRNKTEDLEA [Vp8M, 17-mer peptide, middle region of VAMP8 SNARE motif]”, the “inhibition of membrane fusion (lipid mixing)” value in assay [1] (inhibitor applied to T-vesicles, T:V 9:1, 37°C, NBD dequenching, Vp2S/Vp8S at 10 µM, three independent experiments (Figure 3B-D)) is “specific to the SN23-Syn4-Vp8 complex”.

For the sequence “QSLDRVTETQAQVDELK [Vp7N, 17-mer peptide, N-terminal region of VAMP7 SNARE motif]”, the “inhibition of histamine release” value in the assay on RBL-2H3 mast cells [2] is 0–20%. Besides, in the assay with RBL-2H3 mast cells [3], the “reduction of β-hexosaminidase release” value was 0–20%.

Regarding “DQINKDMREAEKTLTEL [SN23C, 17-mer peptide, C-terminal region of SNAP-23 SNARE motif SN23]”, the “inhibition of membrane fusion, peptide added after preincubation” value in assay [4] and in assay [5] was “did not inhibit membrane fusion regardless of preincubation” each time. Besides, the “inhibition of membrane fusion, peptide added before preincubation” value in assay [5] and in assay [1] was “did not inhibit membrane fusion regardless of preincubation” throughout. The “inhibition of mast cell degranulation with versus without A23187 pretreatment” value in the assay with RBL-2H3 mast cells [3] was “did not inhibit degranulation regardless of whether the pretreatment with A23187 was performed”.

Turning to “KIKHVQNQVDEVIDVMQ [Vp4N, 17-mer peptide, N-terminal region of VAMP4 SNARE motif]”, the “inhibition of histamine release” value in the assay on RBL-2H3 mast cells [2] is given as 0–20%. The “reduction of β-hexosaminidase release” value with RBL-2H3 mast cells [3] is 0–20%.

As for “EHFKTTSQKVARKFWWK [Vp8C, 17-mer peptide, C-terminal region of VAMP8 SNARE motif]”, the “inhibition of membrane fusion, peptide added after preincubation” value in assay [4] and in assay [5] was “did not inhibit membrane fusion regardless of preincubation” throughout. Also, the “inhibition of membrane fusion, peptide added before preincubation” value in assay [5] and in assay [1] was “did not inhibit membrane fusion regardless of preincubation” throughout. The “inhibition of mast cell degranulation with versus without A23187 pretreatment” value in the assay with RBL-2H3 mast cells [3] is “did not inhibit degranulation regardless of whether the pretreatment with A23187 was performed”.
